Measured values: publication PMC10117725, “From an Hsp90 - binding protein to a peptide drug” (microLife, 2022)
Where no end group is shown, it is not given here.

Columns and labels:
[1] = test system: F-actin levels in HaCaT cells; test: F-actin measurement (ActinGreen 488 fluorescence) in HaCaT cells; assay type: cell-based, human; settings: 35 µg/ml peptide (L15 20 µM, L13 30 µM), geldanamycin 5 µM; 1.5 h; ActinGreen 488 fluorescence relative to control
Protocol: About 5 × 10^4 cells were seeded in black flat bottom 96 well cell culture microplate (Greiner, Germany) and incubated overnight. The cells were then incubated with peptides or geldanamycin for 1.5 h. After incubation, the cells were washed, permeabilised with 0.1% (v/v) Triton X-100 and stained with ActinGreen™ 488 ReadyProbes® (Thermo Fischer, Germany) for 30 min. After the staining, the cells were washed and measure for its fluorescence at Excitation/Emission: 495/518 nm (Luqman et al. [2020]).

[2] = test system: MONO-MAC-6 (MM6) cells; test: MTT cytotoxicity in MM6 cells; assay type: cell-based, human; settings: 24 h
Protocol: MTT (3-(4,5-dimethylthiazol-2-yl)-2,5-diphenyl tetrazolium bromide) assay was employed to analyze the cytotoxicity of peptides and geldanamycin to the cells. 5 × 10^5 cells were seeded in a 96 flat bottom well plate and incubated for 2.5 or 24 h at 37°C with 5% CO2. The cells were then treated with increasing concentration (0 to 200 µM) of peptides or geldanamycin for 24 h. After the incubation, 10 μl of the MTT labelling reagent is added to each well to attain a final concentration 0.5 mg/ml, followed by 4 h incubation. Metabolically active cells convert the yellow tetrazolium salt to purple formazan crystals, which were solubilized using the solubilization solution (DMSO) and measured for absorbance at λmax/λref–570/690 nm (Saising et al. [2018]).

[3] = test system: phagocytosis by primary human CD14+ monocytes; test: Phagocytosis of S. aureus USA300 by CD14+ monocytes; assay type: cell-based; settings: L15 20 µM, L13 30 µM, geldanamycin 5 µM, 60 min preincubation; MOI 30, 90 min; n = 4 donors; SEM
Protocol: Peripheral Blood Mononuclear cells (PBMCs) were isolated by density gradient centrifugation following the previous study (Nguyen et al. [2022]). From the pool of PBMCs, monocytes were isolated by positive selection with anti-human CD14 microbeads (Miltenyi Biotech, Bergisch-Gladbach, Germany) following a previously reported protocol (Nguyen et al. [2022]). The purity was analysed by flow cytometry on a BD Accuri C6 (BD Biosciences, Heidelberg, Germany) with anti-human CD14-FITC, CD45-PE and propidium iodide (BD Biosciences, Heidelberg, Germany) and ranged from 85% to 98%.
For the phagocytosis, 10^6 CD14^+ monocytes were seeded in 1 ml of medium (RPMI supplemented with L-Glutamine and 10% FCS) in a 12 well plate (Greiner, Germany). The cells were incubated with 20 µM of L15, 30 µM of L13, or 5 µM of Geldanamycin for 60 min at 37°C and 5% CO2 before addition of bacteria. For the phagocytosis assay, bacterial cells were resuspended in 100 µl RPMI medium at MOI of 30 and incubated with monocytes for 90 min. The cells were washed once with PBS and 0.5 ml of medium supplemented with 2.5 µg/ml of Lysostaphin was added for 90 min to remove the extracellular bacteria. Then, monocytes were washed twice with PBS and resuspended in 0.5 ml of milliQ dH2O. The cells were scraped, and the lysed solution was transferred into a new 1.5 ml Eppendorf tube for a 5 min sonication (frequency 80, power 100) at room temperature to prevent the bacterial cell clumping by using ultrasonic water bath Elmasonic P (Elma Schmidbauer Gmb, Singen, Germany). About 10 µl fractions of undiluted, 10^−1, 10^−2, and 10^−3 dilutions were inoculated on tryptic soy agar (TSA) plates and incubated overnight at 37°C. The numbers of internalized bacteria were determined based on the manual counting of bacterial colony forming units (cfu) recovered on the agar plates.

[4] = test system: Staphylococcus aureus; test: Hemolysin activity on sheep blood agar; assay type: cell-based; settings: impregnated discs on sheep blood agar, 37°C overnight
Protocol: About 6 mm Whatman empty Antibiotic Assay Discs were impregnated with L15 or L13 and allowed to dry. Once dried, the discs were placed on sheep blood agar plates, inoculated with S. aureus and incubated at 37°C overnight. The halo obtained was measured and compared.

[5] = test system: total ATPase activity in HaCaT cells; test: Total ATPase activity in HaCaT cells; assay type: cell-based, human; settings: Fig. S4
[6] = Solubility in PBS; assay type: physicochemical; settings: qualitative statement
[7] = test system: S. aureus USA300 invasion into N/TERT-1 cells; test: S. aureus USA300 invasion into N/TERT-1 keratinocytes; assay type: cell-based, human; settings: pretreatment with L15 20 µM, L13 30 µM, geldanamycin 5 µM or α-Hsp90α antibody
Protocol: The invasion protocol was adapted from our previous papers (Nguyen et al. [2015], Tribelli et al. [2020]). About 5 × 10^5 Keratinocytes were seeded in a 24 well plate (Greiner, Frickenhausen, Germany) to attain a monolayer of ∼10^6 cells/well. Staphylococcusaureus was grown overnight at 37°C, centrifuged and suspended in invasion medium (DMEM with 10% FBS for HaCaT and K-SFM for NTERT-1 cells). The adherent keratinocytes were washed with PBS and supplemented with invasion medium followed by treatment with 20 µM of L15, 30 µM of L13, or 5 µM geldanamycin (Sigma-Aldrich, Germany) or monoclonal antibodies specific against Hsp90α (α‐Hsp90α, Abcam) for 1 h. After 1 h, 100 µl of bacterial suspension was added to each well to attain a MOI (multiplicity of infection) of 30 and incubated with cells for 1.5 h. Subsequently, the extracellular bacteria were killed with treatment of 2.5 μg/ml lysostaphin (Sigma-Aldrich, Germany) for 1.5 h. The cells were then washed, lysed, mechanically detached by scraping, diluted, and enumerated on TSA (Tryptic Soy Agar) plates to quantify the intracellular bacteria.

[8] = test system: S. aureus Newman; test: Mouse S. aureus Newman bacteremia model; assay type: in vivo, NMRI mice
Protocol: About 8- to 10-week-old female NMRI mice were purchased from Envigo (Venray, the Netherlands) and stored under standard temperature, light, and nutrition conditions in the animal facility of the Department of Rheumatology and Inflammation Research, University of Gothenburg. […] To study the effect of L15 on S. aureus bacteremia two separate experiments were performed. The mice were treated intraperitoneally with L15 (10 mg/kg) in 200 µl of PBS every 12 h, starting 2 h before inoculation with bacteria and continuing until the animals were sacrificed. Mice were challenged with septic dose of 2 × 10^6 CFU/mouse of S aureus Newman. To induce the S. aureus systemic infection in NMRI mice, 0.2 ml of S. aureus Newman suspension was inoculated intravenously into the tail vein of the mice. During the course of the experiments, the mice were regularly weighed until the mice were sacrificed. After sacrificing the mice at day 7, kidneys from mice were aseptically removed, homogenised, serially diluted with PBS and enumerated to quantify the bacterial CFUs.

GHYFVTTFY [L13]
Relative F-actin level in HaCaT [1]: 0.87 ± 0.03
percentage of viable cells, MM6, 1 µM ([2]; 1 µM): 106.71 ± 6.40%
percentage of viable cells, MM6, 200 µM ([2]; 200 µM): 82.43 ± 8.59%
decrease of phagocytosis of S. aureus into CD14+ monocytes [3]: about 62.0 ± 6.80%
effect on hemolysis activity of S. aureus [4]: nor was hemolysis activity markedly affected
effect on total ATPase activity in HaCaT cells [5]: could not detect any significant inhibition
solubility in PBS [6]: poor solubility in PBS
invasion of S. aureus USA300 into N/TERT-1 cells [7]: inhibits the invasion

TAKGHYFVTTFYRNG [L15]
Relative F-actin level in HaCaT [1]: 0.83 ± 0.04
survival during the 7-day observation period ([8]; L15 10 mg/kg i.p. every 12 h, 40% of the control group died): all mice treated with L15 survived
bacterial load in the kidneys ([8]; L15 10 mg/kg i.p. every 12 h, day 7, vs PBS control): No significant difference
weight loss of infected mice ([8]; L15 10 mg/kg i.p. every 12 h from 2 h before i.v. 2 × 10^6 CFU/mouse, 7 days, vs PBS control): significantly reduced
reduction of lethality of S. aureus in the mouse model ([8]; mouse bacteremia model): about 40%
decrease of phagocytosis of S. aureus into CD14+ monocytes [3]: about 22.6 ± 7.67%
effect on hemolysis activity of S. aureus [4]: nor was hemolysis activity markedly affected
effect on total ATPase activity in HaCaT cells [5]: could not detect any significant inhibition
solubility in PBS [6]: better soluble
invasion of S. aureus USA300 into N/TERT-1 cells [7]: inhibits the invasion
